# Measured values reported in US20240124422A1, “MUTANT PI3K-ALPHA INHIBITORS AND THEIR USE AS PHARMACEUTICALS” (Prelude Therapeutics Incorporated, priority 2022, published 2024).
# Test system: phosphorylation of AKT on Ser473 as a readout of the PI3K pathway in T-47D (heterozygous PIK3CA H1047R) cells
# Experiment: PI3K pathway activation assay, pAKT Ser473 HTRF, T-47D cells
# Format: cell-based
# Details: Homo sapiens, T47D, 2 h, two hours of treatment
# Method: The inhibitory activity of compounds was evaluated by measuring phosphorylation of AKT on Ser473 as a readout of the PI3K pathway using HTRF (CisBio catalog number: 64AKSPE). These studies were conducted in the T-47D (heterozygous PIK3CA H1047R) and SKBR3 (PIK3CA WT) cell lines. Cells were maintained in a 37° C. incubator at 5% CO2 in the following media: T-47D: RPMI 1640, ATCC© Modification (Gibco, A10491-01) supplemented with 10% v/v FBS (Gibco, 26140-079), 1% penicillin streptomycin (Gibco, 15140-122), and 7.4 ug/mL insulin (MilliporeSigma, I9278); SKBR3: McCoy's 5a (Modified) Medium (Gibco, 16600-082) supplemented with 10% v/v FBS (Gibco, 26140-079). Cells were seeded in 384-well plates at a density of 4,000 cells/well. Compounds dissolved in DMSO were added using a digital dispense (D300E, Tecan) 10-point serial dilution. After two hours of treatment, cells were lysed for thirty minutes and then incubated with detection reagents per HTRF kit material and manufacturer's instructions. Fluorescence signal was measured with a multimode plate reader (Envision 2105, Perkin Elmer). Fluorescent signal was normalized to background and DMSO controls to obtain percent inhibition/activity for each compound.
row,Structure (SMILES),IC50
1,"Cc1cc(C(C)Nc2cccc(F)c2C(=O)O)c2nc(N3CC4CC4C3)n(C)c(=O)c2c1 (stereo not drawn) [Example 121, 2-[1-[2-(3-Azabicyclo[3.1.0]hexan-3-yl)-3,6-dimethyl-4-oxoquinazolin-8-yl]ethylamino]-6-fluorobenzoic acid]",< 500 nM
2,"CONC(=O)c1ccccc1NC(C)c1cc(C)cc2c(=O)n(C)c(N3Cc4ccccc4C3)nc12 (stereo not drawn) [Example 5, 2-((1-(2-(isoindolin-2-yl)-3,6-dimethyl-4-oxo-3,4-dihydroquinazolin-8-yl)ethyl)amino)-N-methoxybenzamide]",500 to 10000 nM
3,"Cc1cc(C(C)Nc2ccccc2C(=O)O)c2nc(N3CC4CC4C3)n(C(F)F)c(=O)c2c1 (stereo not drawn) [Example 102, 2-((1-(2-(3-Azabicyclo[3.1.0]hexan-3-yl)-3-(difluoromethyl)-6-methyl-4-oxo-3,4-dihydroquinazolin-8-yl)ethyl)amino)benzoic acid]",500 to 10000 nM
4,"CSc1ccc(NC(C)c2cc(C)cc3c(=O)n(C)c(N4CC5CC5C4)nc23)c(C(=O)O)n1 (stereo not drawn) [Example 124, 3-[1-[2-(3-Azabicyclo[3.1.0]hexan-3-yl)-3,6-dimethyl-4-oxoquinazolin-8-yl]ethylamino]-6-methylsulfanylpyridine-2-carboxylic acid]",< 500 nM
5,"Cc1cc(C(C)Nc2ccccc2C(=O)O)c2nc(N3CC4CC4C3)n(C)c(=O)c2c1C#N (stereo not drawn) [Example 14, 2-((1-(2-(3-azabicyclo[3.1.0]hexan-3-yl)-5-cyano-3,6-dimethyl-4-oxo-3,4-dihydroquinazolin-8-yl)ethyl)amino)benzoic acid]",500 to 10000 nM
6,"Cc1cc(C(C)Nc2ccccc2C(=O)O)c2nc(N3Cc4ccccc4C3)n(-c3cccnc3)c(=O)c2c1 (stereo not drawn) [Example 18, 2-((1-(2-(isoindolin-2-yl)-6-methyl-4-oxo-3-(pyridin-3-yl)-3,4-dihydroquinazolin-8-yl)ethyl)amino)benzoic acid]",500 to 10000 nM
7,"CC(Nc1ccccc1C(=O)O)c1cc(C(F)(F)F)cc2c(=O)n(C)c(N3CC4CC4C3)nc12 (stereo not drawn) [Example 16, 2-((1-(2-(3-azabicyclo[3.1.0]hexan-3-yl)-3-methyl-4-oxo-6-(trifluoromethyl)-3,4-dihydroquinazolin-8-yl)ethyl)amino)benzoic acid]",500 to 10000 nM
8,"CC(Nc1ccccc1C(=O)O)c1cc(C(F)F)cc2c(=O)n(C)c(N3CC4CC4C3)nc12 (stereo not drawn) [Example 79, 2-((1-(2-(3-Azabicyclo[3.1.0]hexan-3-yl)-6-(difluoromethyl)-3-methyl-4-oxo-3,4-dihydroquinazolin-8-yl)ethyl)amino)benzoic acid]",500 to 10000 nM
9,"Cc1cc(C(C)Nc2cc(Cl)nnc2C(=O)O)c2nc(N3CC4CC4C3)n(C)c(=O)c2c1 (stereo not drawn) [Example 126, 4-((1-(2-(3-Azabicyclo[3.1.0]hexan-3-yl)-3,6-dimethyl-4-oxo-3,4-dihydroquinazolin-8-yl)ethyl)amino)-6-chloropyridazine-3-carboxylic acid]",500 to 10000 nM
10,"Cc1cc(C(C)Nc2ccccc2C(O)C(F)(F)F)c2nc(N3Cc4ccccc4C3)n(C)c(=O)c2c1 (stereo not drawn) [Example 12, 2-(isoindolin-2-yl)-3,6-dimethyl-8-(1-((2-(2,2,2-trifluoro-1-hydroxyethyl)phenyl)amino)ethyl)quinazolin-4(3H)-one]",500 to 10000 nM
11,"CC(Nc1ccccc1C(=O)O)c1cc(C#N)cc2c(=O)n(C)c(N3Cc4ccccc4C3)nc12 (stereo not drawn) [Example 50, 2-((1-(6-cyano-2-(isoindolin-2-yl)-3-methyl-4-oxo-3,4-dihydroquinazolin-8-yl)ethyl)amino)benzoic acid]",500 to 10000 nM

# Next, values leading:
row,IC50,Structure (SMILES)
1,500 to 10000 nM,"COCC(=O)N1CCN(c2nc3c(C(C)Nc4ccccc4C(=O)O)cc(C)cc3c(=O)n2C)CC1 (stereo not drawn) [Example 93, 2-((1-(2-(4-(2-Methoxyacetyl)piperazin-1-yl)-3,6-dimethyl-4-oxo-3,4-dihydro-quinazolin-8-yl)ethyl)amino)benzoic acid]"
2,500 to 10000 nM,"Cc1cc(C(C)Nc2ccccc2C(=O)O)c2nc(N3CCC4(CC3)CC(NC(=O)OC(C)(C)C)C4)n(C)c(=O)c2c1 (stereo not drawn) [Example 107, 2-[1-[3,6-dimethyl-2-[2-[(2-methylpropan-2-yl)oxycarbonylamino]-7-azaspiro[3.5]nonan-7-yl]-4-oxoquinazolin-8-yl]ethylamino]benzoic acid]"
3,500 to 10000 nM,"Cc1cc(C(C)Nc2ccccc2C(=O)O)c2nc(N3CCS(=O)(=O)CC3)n(C)c(=O)c2c1 (stereo not drawn) [Example 56, 2-((1-(2-(1,1-dioxidothiomorpholino)-3,6-dimethyl-4-oxo-3,4-dihydroquinazolin-8-yl)ethyl)amino)benzoic acid]"
4,500 to 10000 nM,"Cc1cc(C(C)Nc2ccccc2C(=O)O)c2nc(N)n(C)c(=O)c2c1 (stereo not drawn) [Example 26, 2-((1-(2-amino-3,6-dimethyl-4-oxo-3,4-dihydroquinazolin-8-yl)ethyl)amino) benzoic acid]"
5,500 to 10000 nM,"C=CC(=O)N1CCCC1c1nc2c(C(C)Nc3ccccc3C(=O)O)cc(C)cc2c(=O)n1C (stereo not drawn) [Example 71, 2-[1-[3,6-Dimethyl-4-oxo-2-(1-prop-2-enoylpyrrolidin-2-yl)quinazolin-8-yl]ethylamino]benzoic acid]"
6,< 500 nM,"Cc1cc(C(C)Nc2ccccc2C(=O)O)c2nc(N3C[C@H]4CCC[C@H]4C3)n(C)c(=O)c2c1 (stereo partly drawn) [Example 113, 2-[1-[3,6-dimethyl-4-oxo-2-[(3aR,6aS)-3,3a,4,5,6,6a-hexahydro-1H-cyclopenta[c]pyrrol-2-yl]quinazolin-8-yl]ethylamino]benzoic acid]"
7,500 to 10000 nM,"Cc1cc(C(C)Nc2ccccc2C(=O)O)c2nc(N3CCC(C#N)CC3)n(C)c(=O)c2c1 (stereo not drawn) [Example 44, 2-((1-(2-(4-cyanopiperidin-1-yl)-3,6-dimethyl-4-oxo-3,4-dihydroquinazolin-8-yl)ethyl)amino)benzoic acid]"
8,< 500 nM,"Cc1cc(C(C)Nc2ccccc2C(=O)O)c2nc(N3CC4CCC4C3)n(C)c(=O)c2c1 (stereo not drawn) [Example 112, 2-[1-[2-(3-azabicyclo[3.2.0]heptan-3-yl)-3,6-dimethyl-4-oxoquinazolin-8-yl]ethylamino]benzoic acid]"
9,< 500 nM,"Cc1cc(C(C)Nc2ccccc2C(=O)O)c2nc(N3C[C@@H]4[C@H](C3)[C@H]4C(=O)N(C)C(C)C)n(C)c(=O)c2c1 (stereo partly drawn) [Example 81, 2-((1-(2-((1R,5S,6R)-6-(Isopropyl(methyl)carbamoyl)-3-azabicyclo[3.1.0]hexan-3-yl)-3,6-dimethyl-4-oxo-3,4-dihydroquinazolin-8-yl)ethyl)amino)benzoic acid]"

# Same assay, conditions: two hours of treatment, read-out: T47D pAKT IC50
row,Structure (SMILES),IC50
1,"Cc1cc(C(C)Nc2ccccc2C(=O)O)c2nc(N3C[C@@H]4C(NC(=O)OCC(F)(F)F)[C@@H]4C3)n(C)c(=O)c2c1 (stereo partly drawn) [Example 60, 2-((1-(3,6-dimethyl-4-oxo-2-((1R,5S,6s)-6-(((2,2,2-trifluoroethoxy)carbonyl)amino)-3-azabicyclo[3.1.0]hexan-3-yl)-3,4-dihydroquinazolin-8-yl)ethyl)amino)benzoic acid]",500 to 10000 nM
2,"Cc1cc(C(C)Nc2ccccc2C(=O)O)c2nc(N3CC4CCC3C4)n(C)c(=O)c2c1 (single isomer, unassigned) [Example 101, 2-((1-(2-(2-Azabicyclo[2.2.1]heptan-2-yl)-3,6-dimethyl-4-oxo-3,4-dihydro-quinazolin-8-yl)ethyl)amino)benzoic acid]",500 to 10000 nM
3,"Cc1cc(C(C)Nc2ccccc2C(=O)O)c2nc(N3C[C@@H]4C(C(=O)N5CCC[C@@H]5C)[C@@H]4C3)n(C)c(=O)c2c1 (stereo partly drawn) [Example 85, 2-((1-(3,6-Dimethyl-2-((1R,5S,6R)-6-((S)-2-methylpyrrolidine-1-carbonyl)-3-azabicyclo[3.1.0]hexan-3-yl)-4-oxo-3,4-dihydroquinazolin-8-yl)ethyl)amino)benzoic acid]",< 500 nM
4,"CON(C)C(=O)C1[C@H]2CN(c3nc4c(C(C)Nc5ccccc5C(=O)O)cc(C)cc4c(=O)n3C)C[C@@H]12 (stereo partly drawn) [Example 83, 2-((1-(2-((1R,5S,6R)-6-(Methoxy(methyl)carbamoyl)-3-azabicyclo[3.1.0]hexan-3-yl)-3,6-dimethyl-4-oxo-3,4-dihydroquinazolin-8-yl)ethyl)amino)benzoic acid]",< 500 nM
5,"Cc1cc(C(C)Nc2ccccc2C(=O)O)c2nc(N3CCC(C)(C)CC3)n(C)c(=O)c2c1 (stereo not drawn) [Example 3, 2-((1-(2-(4,4-dimethylpiperidin-1-yl)-3,6-dimethyl-4-oxo-3,4-dihydroquinazolin-8-yl)ethyl)amino)benzoic acid]",500 to 10000 nM
6,"COCCN(C)C(=O)[C@H]1[C@@H]2CN(c3nc4c(C(C)Nc5ccccc5C(=O)O)cc(C)cc4c(=O)n3C)C[C@@H]21 (stereo partly drawn) [Example 87, 2-((1-(2-((1R,5S,6R)-6-((2-Methoxyethyl)(methyl)carbamoyl)-3-azabicyclo[3.1.0]hexan-3-yl)-3,6-dimethyl-4-oxo-3,4-dihydroquinazolin-8-yl)ethyl)amino)benzoic acid]",500 to 10000 nM
7,"Cc1cc(C(C)Nc2ccccc2C(=O)O)c2nc(N3C[C@@H]4[C@H](C3)[C@H]4NC(=O)OCC3CCCO3)n(C)c(=O)c2c1 (stereo partly drawn) [Example 64, 2-((1-(3,6-dimethyl-4-oxo-2-((1R,5S,6s)-6-((((tetrahydrofuran-2-yl)methoxy)carbonyl)amino)-3-azabicyclo[3.1.0]hexan-3-yl)-3,4-dihydroquinazolin-8-yl)ethyl)amino)benzoic acid]",500 to 10000 nM
